In EP4534542A1, “THIOSUGAR BASED ISOTHIOCYANATES AND USES THEREOF” (Universidad de Sevilla, priority 2023, dated 2025):

How the values were obtained:
HaCaT cells = experiment: Cell viability assay (resazurin), cytotoxicity in non-malignant cells; assay type: cell-based, human; conditions: Homo sapiens, HaCaT, 72 h, read-out: IC50 HaCaT (Non-malignant keratinocyte)
Experimental: (§1) Cells were grown in Dulbecco's Modified Eagle's Medium (DMEM) supplemented with 100 U/mL penicillin, 100 µg/mL streptomycin and 10% fetal bovine serum. HL60 cell line (acute myeloid leukaemia, AML) was obtained from ATCC. It was cultured in IMDM medium supplemented with 100 U/mL penicillin, 100 µg/mL streptomycin and 10% fetal bovine serum. U937 (AML) and Jurkat cells (ALL) were obtained from DMSZ, Braunschweig, Germany, and ATCC, respectively. They were cultivated in RPMI medium, supplemented with 100 U/mL penicillin, 100 µg/mL streptomycin and 10% fetal bovine serum. […] All cell lines were cultured at 37 ° C with 5% CO2 in a humidified incubator. Cell culture reagents were purchased from Biowest. Exponentially growing cells (3000-6000 cells per well) were seeded in 96-well plates. After 24 hours, cells were treated with the drugs for 72 hours. The cell viability was then estimated with the resazurin assay, a colorimetric technique based on the capability of viable cells to reduce the blue reagent resazurin to the pink-soluble product resorufin. The amount of resorufin produced is proportional to the number of viable cells. Briefly, cells were washed once with phosphate buffered saline (PBS) and 150 µL resazurin (20 µg/mL in medium) was added to each well. The plates were incubated for 3 hours at 37 °C, 5% CO2, and finally optical densities were measured at 540 and 620 nm with a multiwell plate spectrophotometer reader (Multiskan EX Labsystems). Cell viability was calculated as a percentage compared to non-treated cells. The results were expressed as the means ± standard error of the mean (SEM). All data are from at least three independent experiments.

[1] = test system: A549 (human lung adenocarcinoma cells); experiment: Cell viability assay (resazurin), cytotoxic activity against solid tumours; assay type: cell-based; conditions: for IC50: Homo sapiens, A549, 72 h, read-out: IC50 A549 (Lung adenocarcino ma); for S.I. A549 (Selectivity Index): IC50 HaCaT divided by IC50 A549, mean of independent experiments
Experimental: as §1, with “The plates were incubated for 3 hours at 37 °C, 5% CO2, and finally optical densities were measured at 540 and 620 nm with a multiwell plate spectrophotometer reader (Multiskan EX Labsystems).” left out, “experiments. The selectivity index (S.I.) values were calculated over each cancer cell line as the mean of the IC50 value in the non-malignant cell line (HaCaT) by the IC50 in the respective cancer cell line obtained in each independent experiment.” for “experiments.”

[2] = test system: MeWo (human melanoma cells); experiment: as above; assay type: cell-based; conditions: for IC50: Homo sapiens, MeWo, 72 h, read-out: IC50 MeWo (Melanoma; BRAF WT); for S.I. MeWo (Selectivity Index): IC50 HaCaT divided by IC50 MeWo, mean of independent experiments
Experimental: as §1, with “The plates were incubated for 3 hours at 37 °C, 5% CO2, and finally optical densities were measured at 540 and 620 nm with a multiwell plate spectrophotometer reader (Multiskan EX Labsystems).” left out, “experiments. The selectivity index (S.I.) values were calculated over each cancer cell line as the mean of the IC50 value in the non-malignant cell line (HaCaT) by the IC50 in the respective cancer cell line obtained in each independent experiment.” for “experiments.”

[3] = test system: T24 (human bladder cancer cells); experiment: as above; assay type: cell-based; conditions: for IC50: Homo sapiens, 72 h, read-out: IC50 T24 (Bladder cancer); for S.I. T24 (Selectivity Index): IC50 HaCaT divided by IC50 T24, mean of independent experiments
Experimental: as §1, with “The plates were incubated for 3 hours at 37 °C, 5% CO2, and finally optical densities were measured at 540 and 620 nm with a multiwell plate spectrophotometer reader (Multiskan EX Labsystems).” left out, “experiments. The selectivity index (S.I.) values were calculated over each cancer cell line as the mean of the IC50 value in the non-malignant cell line (HaCaT) by the IC50 in the respective cancer cell line obtained in each independent experiment.” for “experiments.”

[4] = test system: HL60 (Acute myeloid leukaemia); experiment: Antileukemic activity, cell viability (CCK-8 Cell Counting Kit); assay type: cell-based; conditions: Homo sapiens, HL-60; 18 h incubation, compounds 0 - 100 µM; read-out: IC50 Cancer cells HL60 (Acute myeloid leukaemia)
Experimental: (§2) HaCaT cells (human keratinocytes, reference control), A549 (human lung adenocarcinoma cells), MeWo (human melanoma cells) and T24 (human bladder cancer cells) were purchased from Cell Lines Service (CLS). Cells were grown in Dulbecco's Modified Eagle's Medium (DMEM) supplemented with 100 U/mL penicillin, 100 µg/mL streptomycin and 10% fetal bovine serum. HL60 cell line (acute myeloid leukaemia, AML) was obtained from ATCC. It was cultured in IMDM medium supplemented with 100 U/mL penicillin, 100 µg/mL streptomycin and 10% fetal bovine serum. U937 (AML) and Jurkat cells (ALL) were obtained from DMSZ, Braunschweig, Germany, and ATCC, respectively. They were cultivated in RPMI medium, supplemented with 100 U/mL penicillin, 100 µg/mL streptomycin and 10% fetal bovine serum. OPM-2 cell line (MM), was obtained from DMSZ, Braunschweig, Germany and cultured in RPMI medium supplemented with 100 U/mL penicillin, 100 µg/mL streptomycin, 10% fetal bovine serum and 1X GlutaMAXTM. All cell lines were cultured at 37 ° C with 5% CO2 in a humidified incubator. Cell culture reagents were purchased from Biowest.
(§3) For the leukemic cell lines, the CCK-8 Cell Counting Kit (Dojindo Molecular Technologies) was used according to manufacturers instructions. Briefly, 50.000 cells were seeded in each well of a 96 well plate, and they were treated with increased amounts (0 - 100 µM) of each of the compounds, and incubated for 18 h at 37 °C, 5% CO2. After this period, 7 µl of the CCK-8 reagent were added to each well, and cells were further incubated for 2 h at 37 °C, 5% CO2. OD at 450 nm was obtained using a MultiskanTM GO microplate reader (Thermo Fisher Scientific, Waltham, MA, EE.UU). Cell viability in each condition was normalized to the measurement obtained in the non treated samples (100%), and were represented as average ± standard error of the mean (SEM).

[5] = test system: Jurkat (Acute lymphoblastic leukaemia); experiment: as above; assay type: cell-based; conditions: Homo sapiens, 18 h incubation, compounds 0 - 100 µM, read-out: IC50 Cancer cells Jurkat (Acute lymphoblastic leukaemia)
Experimental: as §2, §3

OPM-2 (Multiple myeloma) = experiment: as above; assay type: cell-based; conditions: Homo sapiens, 18 h incubation, compounds 0 - 100 µM, read-out: IC50 Cancer cells OPM-2 (Multiple myeloma)
Experimental: as §2, §3

[6] = test system: U937 (Acute myeloid leukaemia); experiment: as above; assay type: cell-based; conditions: Homo sapiens, U-937; 18 h incubation, compounds 0 - 100 µM; read-out: IC50 Cancer cells U937 (Acute myeloid leukaemia)
Experimental: as §2, §3

| SMILES | IC50 (HaCaT cells) [µM] | IC50 [1] [µM] | S.I. A549 (Selectivity Index) [1] | IC50 [2] [µM] | S.I. MeWo (Selectivity Index) [2] | IC50 [3] [µM] | S.I. T24 (Selectivity Index) [3] | IC50 [4] [µM] | IC50 [5] [µM] | IC50 (OPM-2 (Multiple myeloma)) [µM] | IC50 [6] [µM] |
| --- | --- | --- | --- | --- | --- | --- | --- | --- | --- | --- | --- |
| CC(=O)OC[C@H]1O[C@@H](S(=O)(=O)c2ccccc2)[C@H](OC(C)=O)[C@@H](N=C=S)[C@@H]1OC(C)=O [Compound 21β, Phenyl 2,4,6-tri-O-acetyl-3-isothiocyanato-1,3-dideoxy-1-sulfonyl-β-D-glucopyranose] | 55.7 ± 2.4 | 37.5 ± 8.6 | 1.7±0.4 | 43.5 ± 9.4 | 1.5±0.3 | 36.4 ± 9.3 | 1.9±0.4 | 13.1 | 24.9 | 19.7 | ~48.3 |
| CC(=O)OC[C@H]1O[C@@H](S(C)(=O)=O)[C@H](OC(C)=O)[C@@H](N=C=S)[C@@H]1OC(C)=O [Compound 19β, Methyl 2,4,6-tri-O-acetyl-3-isothiocyanato-1,3-dideoxy-1-sulfonyl-β-D-glucopyranose] | 138 ± 22.5 | 98 ± 24 | 1.5±0.1 | 77.1 ± 14.4 | 1.9±0.3 | 51.8 ± 2.7 | 2.6±0.3 | ~24.7 | 37.1 | ~48.5 | 45.7 |
